Assay results: publication PMC12067741, “Inhibition of SOD1 trimerization is a novel drug target for ALS disease” (Translational Neurodegeneration, 2025)
Entries after “also recorded” stand apart in the source; their conditions may differ. Where two headings read alike, the source gives them in different places.

Key:
[1] = Pharmacokinetics in mice (compound screening, IV/PO); format: in vivo, mouse; details: mouse (compound screening), PO3, 20 mg/kg
Procedure: Fig. S1. Optimized inhibitor reduces SOD1 aggregation. a, Mutant SOD1s induced WT-SOD1 aggregation. Testing the selected chemicals to check the inhibitory effect on SOD1 aggregation .HEK293 cells were transfected with MT-SOD1 vectors (A4V, G 93 A) and treated with selected chemicals (5 mM). After incubation, transfected cells were harvested with TNNI buffer and fixed with 0.04% glutaraldehyde (Glu) for 30min. Samples were separated using SDS-PAGE. b-c, PRG-A-04 inhibited SOD1 inclusions in SK-N-SH cells. (b) Cells expressing MT-SOD1 vectors were treated with PRG-A-04 ([…]) for 24 hr. After incubation, cells were fixed with 4 % PFA and observed under the fluorescence microscope. (c) Cells with SOD1 inclusions (white arrows; strong intensity of SOD1) were counted by photomicrographs and the percentages were shown with standard deviation (SD). For cell counting, ten fluorescence images were randomly selected. Counting of cells were performed by three independent observers, who were blinded to transfection or chemical treatment group; two-tailed Student’s t-test. NS; Not significant, ****P < 0.001, d, PRG-A- […]
degradationin blood as well as gastro-intestinal tract.IV; intravenous injected group, PO; Per Os administrated group e, […]
show cytotoxicity. To know the toxic effect of PRG-A-04 , human normal fibroblast (f) and neuron cells (g) were incubated with PRG -A-04 for 48 hr dose dependently and measured the viability through MTT assay .“Con” means Dimethyl sulfoxide (DMSO) -treated control . The data are normalized to DMSO-treated cells. n=3 independent experiments; two-tailed Student’s t-test.NS; Not significant, *P < 0.05, **P < 0.01, ***P < 0.005.

CYP 1A2 = CYP 1A2 (Homo sapiens, UniProt P05177); assay: CYP inhibition (direct); format: in vitro ADME; details: CYP 1A2, direct inhibition
CYP 1A2, sequence (P05177 whole entry): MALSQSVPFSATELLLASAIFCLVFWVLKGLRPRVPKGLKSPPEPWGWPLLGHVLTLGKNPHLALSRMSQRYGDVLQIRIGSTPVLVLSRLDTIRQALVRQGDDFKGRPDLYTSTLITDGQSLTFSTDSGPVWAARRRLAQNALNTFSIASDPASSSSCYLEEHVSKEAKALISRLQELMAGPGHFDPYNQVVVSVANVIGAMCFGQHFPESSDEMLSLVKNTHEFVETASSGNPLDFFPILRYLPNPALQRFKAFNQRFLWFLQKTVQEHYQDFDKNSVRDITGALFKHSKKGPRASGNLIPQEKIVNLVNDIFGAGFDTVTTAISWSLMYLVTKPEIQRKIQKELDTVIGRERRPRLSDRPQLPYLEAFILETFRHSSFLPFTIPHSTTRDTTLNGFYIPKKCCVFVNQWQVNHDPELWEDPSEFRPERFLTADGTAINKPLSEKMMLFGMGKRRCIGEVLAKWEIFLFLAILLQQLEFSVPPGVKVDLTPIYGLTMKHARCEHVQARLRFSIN
Source text: (§1) Fig. S8. Preclinical data of PRG-A-04 a Plasma protein binding b CYP inhibition(direct) […]
(§2) d Mouse Brain Tissue penetration
(§3) For the convenience of calculation, […]

[2] = mouse, in vivo, po, 20 mg/kg
Source text: Next, we checked the basic in vitro ADME test including pharmacokinetics, plasma protein binding, CYP (Cytochrome P450) inhibition, metabolic stability and blood–brain barrier (BBB) permeability. […] We also plan to test safety panel assay in the future to obtain safety data for the drug.
as §1, §2, §3

MT-SOD1 = assay: SOD1 oligomerization assay in cells transfected with MT-SOD1 (glutaraldehyde fixation, SDS-PAGE); format: cell-based
Procedure: For SDS-PAGE, proteins were extracted from cells with the RIPA buffer (50 mmol/L Tris–Cl, pH 7.5, 150 mmol/L NaCl, 1% NP-40, 0.1% SDS and […]). To detect the oligomer status, the cells were harvested with the TNNI buffer (50 mmol/L Tris–Cl, pH 7.5, 150 mmol/L NaCl, 0.3% NP-40, 100 mmol/L iodoacetamide, protease inhibitor cocktails) and reacted with 0.04% glutaraldehyde (Glu) for 30 min, and then SDS-PAGE was performed using the pan-SOD1 antibody. Samples were separated via SDS-PAGE and transferred to PVDF membrane. Blotted membranes were blocked by 3% skim milk containing TBST buffer for 1 h and incubated with specific antibodies. The following primary antibodies were used: pan-SOD1 (GTX100554) from Genetex (Irvine, CA); misfolded SOD1-specific antibody (B8H10) from MediMabs (Montreal, Canada); Actin (sc-1616), GST (sc-138), and GFP (Green fluorescent protein; sc-8036) antibodies from Santa Cruz Biotechnology (Santa Cruz, CA); TDP-43 antibody (10782–2-AP) from Proteintech (Rosemont, IL); anti-FLAG (Sigma; F3165) from Sigma-Aldrich (St. Louis, MO). HRP-conjugated goat anti-mouse, goat anti-rabbit and mouse anti-goat antibodies (Pierce, Thermo Fisher Scientific, Inc., Rockford, IL) were used as secondary antibodies. The blots were detected using an ECL assay (Advansta) and images were acquired using the […] ImageQuant 800 (Cytiva) system and an X-Ray film detector. […]

## COc1cc(C=CCOC2Cc3cc4ccc(=O)oc4cc3OC2(C)C)ccc1[N+](=O)[O-] (stereo not drawn) [PRG-A-04]
[1]
  bioavailability: 63.78%
CYP 1A2
  IC50: > 10 µM
[2]; 0.5 h
  Brain/Plasma Ratio, M01+3n: 2.18
  Brain/Plasma Ratio, M02+3n: 1.54
  Brain/Plasma Ratio, M03+3n: 1.90
  Brain/Plasma Ratio, Mean: 1.87
[2]; 1 h
  Brain/Plasma Ratio, M01+3n: 2.29
  Brain/Plasma Ratio, M02+3n: 2.02
  Brain/Plasma Ratio, M03+3n: 2.02
[2]; 12 h
  Brain/Plasma Ratio, M01+3n: 1.92
  Brain/Plasma Ratio, M02+3n: 1.87
  Brain/Plasma Ratio, M03+3n: 1.71
  Brain/Plasma Ratio, Mean: 1.84
MT-SOD1; cells transfected with MT-SOD1
  effect on SOD1 dimer formation: did not affect dimer formation
MT-SOD1; cells transfected with MT-SOD1 vectors
  effect on MT-SOD1 aggregation / oligomerization: suppressed the MT-SOD1 aggregation; also recorded: blocked aggregation of various SOD1 mutants; also recorded: suppressed SOD1 oligomerization by MT-SOD1 in a dose-dependent manner
